Here are results for 31 compounds from patent US8044089B2, “3-3-di-substituted-oxindoles as inhibitors of translation initiation” (President and Fellows of Harvard College, priority 2004, dated 2011).

As a reminder, the pIC50 is the IC50 on a negative log10 scale, so that one unit is a factor of ten.

For assay [1], the system named is intracellular Ca^2+ stores. Description: Ca2+ release from intracellular stores (FURA-2AM loaded cells). It counts as cell-based. The arrangement: key to Ca^2+ (Ca^2+ release from intracellular stores): a “+” denotes release; a “+/−” denotes inconclusive. In outline:
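Ca2+ release scored in FURA-2AM loaded cells as "+" (release) or "+/−" (inconclusive); some compounds also tested with ER-targeted FRET Ca2+ sensors. Ca2+-depleting compounds were then tested for eIF2α phosphorylation by Western blot with phospho-specific anti-eIF2α antibody.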

The subject of assay [2] is eIF2α. Description: eIF2α phosphorylation measured by Western blot. It counts as cell-based. The settings on record: for eIF2α-P (phosphorylation of eIF2α measured by Western blot): unit or reference not given. The text has this: As a non-limiting example, compounds 1272 and 1273 (set forth in Table 1) were synthesized starting from 3-bromoaniline, which upon condensation with hydroxylamine and chloral hydrate followed by concentrated sulfuric acid yielded an inseparable regioisomeric mixture of 4- and 6-bromo isatins. The addition of the two phenyl groups to the three position of the oxindole allowed easy chromatographic separation of the 4- and 6-bromo-3,3-diphenyloxindoles 1272 and 1273. Table 1 sets forth biological data for diaryloxindole compounds including, but not limited to 1272 and 1273. For Tables 1-14, Ca^2+ refers to Ca^2+ release from intracellular stores where a “+” denotes release and a “+/−” denotes inconclusive; eIF2α-P refers to phosphorylation of eIF2α measured by Western blot; SRB refers to the inhibitory concentration to reduce cell growth by 50% (IC50) for growth inhibition of A549 lung cancer cells; and n.d. is not determined.
Without intending to be bound by theory, the mechanism of action of translation initiation inhibitors is set forth in FIG. 1, and includes the depletion (complete or partial depletion) of intracellular calcium (Ca^2+) stores and phosphorylation of eIF2α. Compounds synthesized using the approaches described herein were screened for their ability to partially deplete intracellular Ca^2+ stores using FURA-2AM loaded cells (Benzaquen et al. (1995) Nature Medicine, 1:534, incorporated herein by reference in its entirety for all purposes). A limited subset of compounds were further screened for their ability to deplete endoplasmic reticulum (ER) Ca^2+. The Ca^2+ content of the ER was monitored using ER-targeted, Ca^2+ sensitive, recombinant proteins. These recombinant proteins emitted light by fluorescent resonance energy transfer (FRET) as a function of the Ca^2+ content of the medium. Such assays are previously described (Miyawaki, A.; Mizuno, H.; Llopis, J.; Tsien, R. Y.; Jalink, K. Cameleons as cytosolic and intra-organellar calcium probes, Oxford University Press: Oxford, London, 2001; pp 3-16, incorporated herein by reference in its entirety for all purposes). Compounds that depleted Ca^2+ were further evaluated for their ability to phosphorylate eIF2α. eIF2α phosphorylation was measured by Western blot analysis using the phospho-specific anti-eIF2α antibody, as previously described (Aktas et al. (1998) Proc. Natl. Acad. Sci. USA, 95:8280, incorporated herein by reference in its entirety for all purposes).
On the technique in general: In western blotting, separated proteins are transferred to a membrane and probed.

Assay [3] deals with A549 lung cancer cells. Description: SRB growth inhibition of A549 lung cancer cells. Conditions: for pIC50: A549 lung cancer cells, unit inferred, read-out: SRB (IC50 for growth inhibition of A549 lung cancer cells). Format: cell-based, human.

pIC50: −log10 of the molar value.

As to `O=C1Nc2ccccc2C1(c1ccccc1)c1ccc(O)c(C(F)(F)F)c1` (centres unmarked) [Compound 1242], in assay [1], the “Ca^2+ (Ca^2+ release from intracellular stores)” value was “+”. Moreover, in assay [2], the “eIF2α-P (phosphorylation of eIF2α measured by Western blot)” value (shortened to “eIF2α-P”) was 2.72. The pIC50 in assay [3] is 4.85.

Turning to `Cc1cc(C2(c3ccccc3)C(=O)Nc3c(C(=O)O)cccc32)c(NS(C)(=O)=O)cc1O` (centres unmarked) [Compound 1417], the “Ca^2+ (Ca^2+ release from intracellular stores)” value in assay [1] is given as “+”. Further, the “eIF2α-P” value in assay [2] stood at 0.96. In addition, the pIC50 in assay [3] was less than 4.70.

Consider `CC(C)(C)c1ccc(O)c(C2(c3ccccc3)C(=O)Nc3cccc(Cl)c32)c1` (centres unmarked) [Compound 1209], for which, in assay [1], the “Ca^2+ (Ca^2+ release from intracellular stores)” value is “+”. Also, in assay [2], the “eIF2α-P” value is given as 2.08. Besides, the pIC50 in assay [3] was 5.10.

Take `O=C1Nc2ccccc2C1(c1ccccc1)c1cc(C2CCCC2)ccc1O` (centres unmarked) [Compound 1289]: the “Ca^2+ (Ca^2+ release from intracellular stores)” value in assay [1] is “+”. In assay [2], the “eIF2α-P” value is recorded as 6.49. Further, the pIC50 in assay [3] is 5.52.

On to `O=C1Nc2ccc([N+](=O)[O-])cc2C1(c1ccccc1)c1ccccc1` [Compound 1265], for which, in assay [1], the “Ca^2+ (Ca^2+ release from intracellular stores)” value is “+/−”. Further, the “eIF2α-P” value in assay [2] was found to be 2.35. In addition, the pIC50 in assay [3] is 4.85.

`CC(C)(C)c1ccc(O)c(C2(c3cccc(F)c3)C(=O)Nc3ccccc32)c1` (centres unmarked) [Compound 1223]: the “Ca^2+ (Ca^2+ release from intracellular stores)” value in assay [1] was “+”. Also, in assay [2], the “eIF2α-P” value was determined as 4.41. In addition, the pIC50 in assay [3] is 5.15.

Turning to `CCCCCc1ccc(O)c(C2(c3ccccc3)C(=O)Nc3ccccc32)c1` (centres unmarked) [Compound 1286], in assay [1], the “Ca^2+ (Ca^2+ release from intracellular stores)” value is recorded as “+”. For the same compound, the “eIF2α-P” value in assay [2] worked out at 8.60. Besides, the pIC50 in assay [3] was 5.52.

On to `Cc1cc(C2(c3ccccc3)C(=O)Nc3ccccc32)c(NS(=O)(=O)c2ccc(I)cc2)cc1O` (centres unmarked) [Compound 1592], for which, in assay [1], the “Ca^2+ (Ca^2+ release from intracellular stores)” value is “+”. The “eIF2α-P” value in assay [2] is listed as 5.19. Besides, the pIC50 in assay [3] was 5.52.

Take `O=C1Nc2ccccc2C1(c1ccccc1)c1ccccc1O` (centres unmarked) [Compound 1197]: the “Ca^2+ (Ca^2+ release from intracellular stores)” value in assay [1] was “+”. In addition, in assay [2], the “eIF2α-P” value amounted to 1.50. Moreover, in assay [3], the pIC50 is 4.85.

As for `COC(=O)c1cccc2c1NC(=O)C2(c1ccccc1)c1ccccc1` [Compound 1354], the “Ca^2+ (Ca^2+ release from intracellular stores)” value in assay [1] was “+”. Besides, the “eIF2α-P” value in assay [2] came out at 1.74. For the same compound, the pIC50 in assay [3] is less than 4.70.

As for `O=C1Nc2ccccc2C1(c1ccccc1)c1ccc(OCCO)cc1` (centres unmarked) [Compound 1299], the “Ca^2+ (Ca^2+ release from intracellular stores)” value in assay [1] was “+”. Moreover, the “eIF2α-P” value in assay [2] is listed as 0.71. The pIC50 in assay [3] was 5.30.

With `CC(C)(C)c1ccc(O)c(C2(c3ccccc3)C(=O)Nc3ccc(I)cc32)c1` (centres unmarked) [Compound 1213], the “Ca^2+ (Ca^2+ release from intracellular stores)” value in assay [1] was “+/−”. For the same compound, the “eIF2α-P” value in assay [2] stood at 2. The pIC50 in assay [3] is 5.52.

Regarding `Cc1cc(C2(c3ccccc3)C(=O)Nc3c(C(=O)O)cccc32)c(NC(=O)OCC2c3ccccc3-c3ccccc32)cc1O` (centres unmarked) [Compound 1394], the “Ca^2+ (Ca^2+ release from intracellular stores)” value in assay [1] was “+”. Moreover, the “eIF2α-P” value in assay [2] came to 8.21. The pIC50 in assay [3] is 5.05.

`Cc1cc(C2(c3ccccc3)C(=O)Nc3ccccc32)c(NS(=O)(=O)c2cccc(C(F)(F)F)c2)cc1O` (centres unmarked) [Compound 1514]: in assay [1], the “Ca^2+ (Ca^2+ release from intracellular stores)” value is on record as “+”. Besides, the “eIF2α-P” value in assay [2] is given as 1.65. For the same compound, the pIC50 in assay [3] is 5.52.

With `CCc1ccc2c(c1)C(c1ccccc1)(c1cc(C(C)(C)C)ccc1O)C(=O)N2` (centres unmarked) [Compound 1254], in assay [1], the “Ca^2+ (Ca^2+ release from intracellular stores)” value was “+”. Moreover, the “eIF2α-P” value in assay [2] was 2.12. Further, the pIC50 in assay [3] was 5.40.

On to `C#CC1(c2cc(C(C)(C)C)ccc2O)C(=O)Nc2ccccc21` (centres unmarked) [Compound 1276], for which the “Ca^2+ (Ca^2+ release from intracellular stores)” value in assay [1] was “+”. Also, the “eIF2α-P” value in assay [2] is recorded as 0.75. Moreover, the pIC50 in assay [3] is 4.89.

For `CC(C)(C)c1ccc(O)c(C2(c3ccccc3)C(=O)Nc3ccc(N)cc32)c1` (centres unmarked) [Compound 1231], the “Ca^2+ (Ca^2+ release from intracellular stores)” value in assay [1] was “+”. In assay [2], the “eIF2α-P” value is given as 1.46. Also, the pIC50 in assay [3] was 4.85.

As to `CC(C)CC(NC(=O)COc1ccc(C(C)(C)C)cc1C1(c2ccccc2)C(=O)Nc2ccccc21)C(=O)NC(CO)Cc1ccccc1` (centres unmarked) [Compound 1400], in assay [1], the “Ca^2+ (Ca^2+ release from intracellular stores)” value was “+”. For the same compound, in assay [2], the “eIF2α-P” value was determined as 3.70. Further, the pIC50 in assay [3] is 5.52.

Take `CC(C)(C)c1ccc(O)c(C2(c3ccccc3)C(=O)Nc3ccc(Br)cc32)c1` (centres unmarked) [Compound 1211]: in assay [1], the “Ca^2+ (Ca^2+ release from intracellular stores)” value was “+”. Moreover, in assay [2], the “eIF2α-P” value is recorded as 1.14. In addition, the pIC50 in assay [3] is 5.52.

Regarding `O=C1Nc2ccc(F)cc2C1(c1ccccc1)c1ccccc1` [Compound 1350], in assay [1], the “Ca^2+ (Ca^2+ release from intracellular stores)” value is reported as “+”. For the same compound, the “eIF2α-P” value in assay [2] worked out at 1.16. Further, the pIC50 in assay [3] was 5.05.

Turning to `COc1cccc(C2(c3ccccc3)C(=O)Nc3ccccc32)c1` (centres unmarked) [Compound 1293], in assay [1], the “Ca^2+ (Ca^2+ release from intracellular stores)” value is given as “+/−”. In addition, the “eIF2α-P” value in assay [2] is given as 1.30. In addition, the pIC50 in assay [3] was 4.85.

As to `CC(C)(C)c1ccc(O)c(C2(c3cccc(Cl)c3)C(=O)Nc3ccccc32)c1` (centres unmarked) [Compound 1221], the “Ca^2+ (Ca^2+ release from intracellular stores)” value in assay [1] was “+”. For the same compound, the “eIF2α-P” value in assay [2] is 3.24. In assay [3], the pIC50 is 5.52.

Take `O=C(O)c1ccc(Cl)c2c1NC(=O)C2(c1ccccc1)c1ccccc1` [Compound 1392]: in assay [1], the “Ca^2+ (Ca^2+ release from intracellular stores)” value is “+”. Further, in assay [2], the “eIF2α phosphorylation (in words)” value is “improved eIF2α phosphorylation” and the “eIF2α-P” value came to 2.76. The “growth inhibition of cancer cells (in words)” value in assay [3] (A549) was “improved growth inhibition of cancer cells”. Moreover, in assay [3], the pIC50 was 5.40.

For the compound `CCc1ccc2c(c1)C(c1ccccc1)(c1ccccc1)C(=O)N2` [Compound 1269], the “Ca^2+ (Ca^2+ release from intracellular stores)” value in assay [1] is listed as “+”. For the same compound, in assay [2], the “eIF2α-P” value came to 1.64. In addition, the pIC50 in assay [3] is less than 4.70.

For the compound `CCc1cccc2c1C(c1ccccc1)(c1cc(C(C)(C)C)ccc1O)C(=O)N2` (centres unmarked) [Compound 1257], in assay [1], the “Ca^2+ (Ca^2+ release from intracellular stores)” value is on record as “+”. In addition, the “eIF2α-P” value in assay [2] came to 1.11. The pIC50 in assay [3] is 5.00.

With `CCCCc1ccc(O)c(C2(c3ccccc3)C(=O)Nc3ccccc32)c1` (centres unmarked) [Compound 1287], in assay [1], the “Ca^2+ (Ca^2+ release from intracellular stores)” value is “+”. In addition, in assay [2], the “eIF2α-P” value came out at 10.08. The pIC50 in assay [3] was 5.52.

Take `CC(C)(C)c1ccc(O)c(C2(c3ccccc3)C(=O)Nc3c(C(=O)O)ccc(Cl)c32)c1` (centres unmarked) [Compound 1418]: the “Ca^2+ (Ca^2+ release from intracellular stores)” value in assay [1] is on record as “+”. The “eIF2α-P” value in assay [2] was 7.47. Moreover, in assay [3], the pIC50 is 4.80.

For `COc1ccc2c(c1)C(c1ccccc1)(c1cc(C(C)(C)C)ccc1O)C(=O)N2` (centres unmarked) [Compound 1214], the “Ca^2+ (Ca^2+ release from intracellular stores)” value in assay [1] is recorded as “+”. The “eIF2α-P” value in assay [2] is given as 1.62. Besides, in assay [3], the pIC50 was 5.22.

For the compound `COc1ccccc1C1(c2ccc(C(C)(C)C)cc2)C(=O)Nc2ccccc21` (centres unmarked) [Compound 1237], the “Ca^2+ (Ca^2+ release from intracellular stores)” value in assay [1] is recorded as “+”. The “eIF2α-P” value in assay [2] amounted to 1.3. For the same compound, the pIC50 in assay [3] was 4.77.

Consider `Cc1ccc(O)c(C2(c3ccccc3)C(=O)Nc3ccccc32)c1` (centres unmarked) [Compound 1278], for which the “Ca^2+ (Ca^2+ release from intracellular stores)” value in assay [1] is recorded as “+”. Further, the “eIF2α-P” value in assay [2] amounted to 3.33. Moreover, the pIC50 in assay [3] was 5.10.

Consider `Cc1cc(C2(c3ccccc3)C(=O)Nc3ccccc32)c(NS(=O)(=O)c2ccc([N+](=O)[O-])cc2)cc1O` (centres unmarked) [Compound 1589], for which the “Ca^2+ (Ca^2+ release from intracellular stores)” value in assay [1] is on record as “+”. The “eIF2α-P” value in assay [2] worked out at 1. Further, the pIC50 in assay [3] is 5.30.
